Experimental data published in PMC3369275 (Tetrahedron, 2012).

Columns and labels:
[1] = tested on: panel of human cancer cell lines; details: reported previously; cited from earlier work
[2] = target: NF-κB (p65) (Homo sapiens, UniProt Q04206); experiment: Enzyme-based ELISA NF-κB p65 inhibition assay; type: biochemical; details: for NF-κB (p65) inhibitory activity (result in words): inactive = IC50 > 10 µM; for IC50: read-out: NF-κB p65 inhibition IC50, ELISA, rocaglamide positive control
[3] = tested on: HT-29 human colon cancer cell line

Sequence of NF-κB (p65) (Q04206 whole entry): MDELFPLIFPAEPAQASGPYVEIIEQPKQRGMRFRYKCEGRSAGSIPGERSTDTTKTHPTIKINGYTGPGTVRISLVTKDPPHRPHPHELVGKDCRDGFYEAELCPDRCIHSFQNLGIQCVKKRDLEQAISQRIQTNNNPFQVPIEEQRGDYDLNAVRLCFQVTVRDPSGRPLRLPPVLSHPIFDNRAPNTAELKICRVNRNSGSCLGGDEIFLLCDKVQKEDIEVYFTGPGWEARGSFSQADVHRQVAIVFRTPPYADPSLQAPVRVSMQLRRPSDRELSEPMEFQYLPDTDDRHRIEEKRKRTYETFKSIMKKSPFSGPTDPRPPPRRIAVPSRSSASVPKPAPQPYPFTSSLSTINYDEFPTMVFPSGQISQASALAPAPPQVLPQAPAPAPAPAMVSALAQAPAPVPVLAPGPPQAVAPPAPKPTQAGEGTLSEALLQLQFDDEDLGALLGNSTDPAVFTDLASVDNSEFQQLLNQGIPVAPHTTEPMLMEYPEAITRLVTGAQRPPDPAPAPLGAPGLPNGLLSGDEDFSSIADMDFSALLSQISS

| Molecule | NF-κB (p65) inhibitory activity (result in words) [2] | IC50 [2] [µM] | Cytotoxicity toward a panel of human cancer cell lines (result in words) [1] | IC50 [3] [µM] |
| --- | --- | --- | --- | --- |
| C=C1C(=O)O[C@H]2[C@H]1CC/C(C)=C/CC[C@@]1(C)O[C@@H]21 [parthenolide, reference compound] |  |  | exhibit cytotoxicity |  |
| C=C1C(=O)OC2CC(C)C(OC)CC(=O)C(C)(OC(C)=O)CC(OC(=O)C(C)=CC)C12 [Compound 5, (3R,4R,6R,7S,8S,10R)-1-oxo-3-methoxy-8-angeloyloxy-10-acetoxygermacra-11(13)-en-6,12-olide] | active | 2.1 |  |  |
| C=C1C(=O)OC2CC(C)CCC(=O)C(C)(OC(C)=O)CC(OC(=O)C(C)=CC)C12 [Compound 3, (4S,6R,7S,8S,10R)-1-oxo-8-angeloyloxy-10-acetoxygermacra-11(13)-en-6,12-olide] |  | > 10 |  | 3 |
| C=C1C(=O)OC2CC(C)C(OC)CC(=O)C(C)(O)CC(OC(=O)C(C)=CC)C12 [Compound 6, (3R,4R,6R,7S,8S,10R)-1-oxo-3-methoxy-8-angeloyloxy-10-hydroxygermacra-11(13)-en-6,12-olide] |  | > 10 |  |  |
| C=C1C(=O)O[C@@H]2C/C(C)=C\CC(=O)[C@](C)(OC(C)=O)C[C@H](OC(=O)/C(C)=C\C)[C@@H]12 [Compound 4, (6R,7S,8S,10R)-1-oxo-8-angeloyloxy-10-acetoxygermacra-3(4),11(13)-dien-6,12-olide] |  | > 10 |  |  |

Continued, in another order:

| NF-κB (p65) inhibitory activity (result in words) [2] | IC50 [2] [µM] | Molecule | Cytotoxicity toward a panel of human cancer cell lines (result in words) [1] | IC50 [3] [µM] |
| --- | --- | --- | --- | --- |
| active | 3.8 | C=C(C)C(=O)O[C@H]1C[C@@]2(C)OC(=CC2=O)/C(CO)=C\[C@H]2OC(=O)C(=C)[C@H]12 [Compound 8, goyazensolide] | exhibit cytotoxicity |  |
| active | 2.9 | C=C1C(=O)O[C@@H]2/C=C(/C)C3=CC(=O)[C@@](C)(C[C@H](OC(=O)/C(C)=C\C)[C@@H]12)O3 [Compound 12, lychnopholide] | exhibit cytotoxicity |  |
| active | 3.2 | 15-deoxygoyazensolide [Compound 10] |  | 0.26 |
|  | > 10 | C=C1C(=O)O[C@@H]2C[C@@H](C)/C=C\C(=O)[C@](C)(OC(C)=O)C[C@H](OC(=O)/C(C)=C\C)[C@@H]12 [Compound 7, ereglomerulide] |  |  |
|  | > 10 | 4,5-dihydrolychnopholide [Compound 13] |  |  |
